Assay results: ChEMBL document CHEMBL5465560, “Selectivity Literature for EUbOPEN Chemogenomic Library” (2024)
Each block holds one compound with its values, some of them ahead of it.

Key:
[1] = target: T1, Inhibitor of nuclear factor kappa-B kinase subunit alpha (Homo sapiens) (UniProt O15111); assay: Selectivity interaction (KinomeScan (DiscoverX)) EUB0000666a CHUK; conditions: at 10 µM
T1 sequence (whole entry): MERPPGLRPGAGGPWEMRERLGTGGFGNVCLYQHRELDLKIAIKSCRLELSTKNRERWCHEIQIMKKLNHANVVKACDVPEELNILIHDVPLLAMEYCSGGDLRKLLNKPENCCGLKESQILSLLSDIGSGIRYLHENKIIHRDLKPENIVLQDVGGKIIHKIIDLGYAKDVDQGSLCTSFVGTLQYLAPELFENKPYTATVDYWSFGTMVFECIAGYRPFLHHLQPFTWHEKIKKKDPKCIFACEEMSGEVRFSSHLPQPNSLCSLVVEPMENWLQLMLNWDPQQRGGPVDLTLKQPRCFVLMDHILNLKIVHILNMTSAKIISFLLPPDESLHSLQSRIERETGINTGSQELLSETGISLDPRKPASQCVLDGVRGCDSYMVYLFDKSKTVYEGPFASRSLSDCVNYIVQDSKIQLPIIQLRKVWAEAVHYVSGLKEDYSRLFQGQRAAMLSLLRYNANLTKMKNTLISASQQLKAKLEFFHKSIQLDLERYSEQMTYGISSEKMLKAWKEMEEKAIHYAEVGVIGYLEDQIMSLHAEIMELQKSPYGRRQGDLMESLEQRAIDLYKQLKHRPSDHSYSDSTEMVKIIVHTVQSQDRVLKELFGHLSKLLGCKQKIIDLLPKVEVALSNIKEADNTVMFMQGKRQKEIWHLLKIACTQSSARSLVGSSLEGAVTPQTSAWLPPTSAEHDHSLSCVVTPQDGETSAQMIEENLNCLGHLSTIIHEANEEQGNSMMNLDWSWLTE

Glucocorticoid receptor = Glucocorticoid receptor (Homo sapiens, UniProt P04150); assay: Selectivity interaction (Glucocorticoid receptor binding assay, human recombinant ) EUB0000877a NR3C1
Chain of Glucocorticoid receptor (P04150 whole entry): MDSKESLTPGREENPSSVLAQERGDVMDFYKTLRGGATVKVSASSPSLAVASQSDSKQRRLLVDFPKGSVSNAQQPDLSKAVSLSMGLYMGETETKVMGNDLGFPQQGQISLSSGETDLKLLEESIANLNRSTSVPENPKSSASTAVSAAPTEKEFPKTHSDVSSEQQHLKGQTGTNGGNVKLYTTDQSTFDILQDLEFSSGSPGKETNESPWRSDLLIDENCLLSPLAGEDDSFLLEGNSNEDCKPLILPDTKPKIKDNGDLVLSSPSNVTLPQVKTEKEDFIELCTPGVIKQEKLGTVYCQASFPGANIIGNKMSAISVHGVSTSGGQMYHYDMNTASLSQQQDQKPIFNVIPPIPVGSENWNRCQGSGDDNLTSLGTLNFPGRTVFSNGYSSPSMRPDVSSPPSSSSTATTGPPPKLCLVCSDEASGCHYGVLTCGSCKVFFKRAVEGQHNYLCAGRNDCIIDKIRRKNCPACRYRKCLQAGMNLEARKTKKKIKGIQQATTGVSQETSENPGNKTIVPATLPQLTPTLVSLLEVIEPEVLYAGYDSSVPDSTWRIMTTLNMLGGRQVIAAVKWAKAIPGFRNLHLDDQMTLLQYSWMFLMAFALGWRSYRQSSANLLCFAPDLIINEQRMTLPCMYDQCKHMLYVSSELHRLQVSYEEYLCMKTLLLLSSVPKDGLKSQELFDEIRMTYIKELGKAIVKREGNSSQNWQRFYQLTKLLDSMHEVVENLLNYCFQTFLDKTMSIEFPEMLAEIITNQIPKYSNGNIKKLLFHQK

[2] = target: [Pyruvate dehydrogenase (acetyl-transferring)] kinase isozyme 1, mitochondrial (Homo sapiens, UniProt Q15118); assay: Selectivity interaction (SelectScreen profiling (Invitrogen)) EUB0000607a PDK1; conditions: at 2 µM
[3] = target: Tyrosine-protein kinase FRK (Homo sapiens) (UniProt P42685); conditions: at 10 µM
Chain of Tyrosine-protein kinase FRK (Homo sapiens) (P42685 whole entry): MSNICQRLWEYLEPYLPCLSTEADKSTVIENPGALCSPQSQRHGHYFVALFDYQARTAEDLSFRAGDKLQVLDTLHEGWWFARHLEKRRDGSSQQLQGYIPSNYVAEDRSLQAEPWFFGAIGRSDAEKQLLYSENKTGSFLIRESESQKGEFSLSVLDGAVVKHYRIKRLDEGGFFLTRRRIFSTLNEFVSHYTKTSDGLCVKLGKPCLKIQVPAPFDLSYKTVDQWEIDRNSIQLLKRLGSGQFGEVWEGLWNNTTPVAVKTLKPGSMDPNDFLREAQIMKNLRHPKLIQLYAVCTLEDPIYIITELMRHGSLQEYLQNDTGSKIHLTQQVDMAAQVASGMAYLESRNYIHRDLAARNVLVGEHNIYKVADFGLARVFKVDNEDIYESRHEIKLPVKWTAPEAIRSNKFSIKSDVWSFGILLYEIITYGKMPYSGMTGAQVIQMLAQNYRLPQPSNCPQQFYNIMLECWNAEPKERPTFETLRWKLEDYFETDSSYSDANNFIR

[4] = tested on: Receptor-type tyrosine-protein kinase FLT3 (Homo sapiens), P36888 [UNDEFINED MUTATION]; conditions: at 10 µM
Chain of Receptor-type tyrosine-protein kinase FLT3 (Homo sapiens), P36888 [UNDEFINED MUTATION] (P36888 whole entry, looked up, change not shown): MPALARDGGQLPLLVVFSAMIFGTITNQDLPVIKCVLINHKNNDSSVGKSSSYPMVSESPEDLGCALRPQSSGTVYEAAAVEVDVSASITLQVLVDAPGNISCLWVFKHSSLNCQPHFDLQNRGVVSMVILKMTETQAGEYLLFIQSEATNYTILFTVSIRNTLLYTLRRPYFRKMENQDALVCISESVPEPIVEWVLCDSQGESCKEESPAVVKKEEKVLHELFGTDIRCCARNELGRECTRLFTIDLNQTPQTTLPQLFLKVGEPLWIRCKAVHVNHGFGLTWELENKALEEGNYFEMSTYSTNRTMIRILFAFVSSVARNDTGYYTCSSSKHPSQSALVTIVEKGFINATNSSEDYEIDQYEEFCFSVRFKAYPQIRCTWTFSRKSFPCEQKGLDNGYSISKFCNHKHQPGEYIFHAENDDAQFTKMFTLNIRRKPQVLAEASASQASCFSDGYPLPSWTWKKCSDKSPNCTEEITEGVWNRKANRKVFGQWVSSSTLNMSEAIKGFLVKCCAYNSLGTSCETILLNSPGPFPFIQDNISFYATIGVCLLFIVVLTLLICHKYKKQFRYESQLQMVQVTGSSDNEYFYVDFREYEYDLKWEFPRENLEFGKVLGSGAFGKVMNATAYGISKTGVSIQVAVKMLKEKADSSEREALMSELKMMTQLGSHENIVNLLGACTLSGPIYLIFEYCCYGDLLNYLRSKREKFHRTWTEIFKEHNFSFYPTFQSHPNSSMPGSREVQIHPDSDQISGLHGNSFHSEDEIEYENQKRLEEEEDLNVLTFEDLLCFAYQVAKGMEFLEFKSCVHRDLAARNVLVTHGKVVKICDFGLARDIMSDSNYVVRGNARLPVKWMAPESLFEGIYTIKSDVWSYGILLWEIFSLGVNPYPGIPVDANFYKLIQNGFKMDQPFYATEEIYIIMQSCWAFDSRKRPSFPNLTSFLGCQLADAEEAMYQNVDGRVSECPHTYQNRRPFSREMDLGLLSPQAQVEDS

[5] = target: T2, TGF-beta receptor type-1 (Homo sapiens) (UniProt P36897); assay: Selectivity interaction (ProQinase) EUB0000171b TGFBR1
T2 sequence (whole entry): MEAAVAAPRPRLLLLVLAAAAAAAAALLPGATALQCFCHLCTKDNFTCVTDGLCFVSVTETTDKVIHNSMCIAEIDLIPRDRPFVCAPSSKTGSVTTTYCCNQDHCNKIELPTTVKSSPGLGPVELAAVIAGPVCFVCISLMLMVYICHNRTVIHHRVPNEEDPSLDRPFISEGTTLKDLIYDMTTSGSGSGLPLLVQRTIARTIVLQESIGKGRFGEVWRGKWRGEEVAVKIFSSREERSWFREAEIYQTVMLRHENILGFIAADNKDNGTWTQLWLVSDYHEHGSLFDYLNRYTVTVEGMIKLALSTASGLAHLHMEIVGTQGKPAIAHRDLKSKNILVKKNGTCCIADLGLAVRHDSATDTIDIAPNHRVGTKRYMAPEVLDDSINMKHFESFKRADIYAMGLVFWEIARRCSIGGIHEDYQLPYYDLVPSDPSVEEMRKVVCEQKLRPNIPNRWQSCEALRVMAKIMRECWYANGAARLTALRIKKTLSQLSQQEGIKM

[6] = target: Ribosomal protein S6 kinase alpha-4 (Homo sapiens) (UniProt O75676); assay: Selectivity interaction (KinomeScan (DiscoverX)) EUB0001049a RPS6KA4; conditions: at 1 µM
[7] = target: Calcium/calmodulin-dependent protein kinase type II subunit beta (Homo sapiens) (UniProt Q13554); assay: Selectivity interaction (KinomeScan (DiscoverX)) EUB0000655a CAMK2B; conditions: at 10 µM
Chain of Calcium/calmodulin-dependent protein kinase type II subunit beta (Homo sapiens) (Q13554 whole entry): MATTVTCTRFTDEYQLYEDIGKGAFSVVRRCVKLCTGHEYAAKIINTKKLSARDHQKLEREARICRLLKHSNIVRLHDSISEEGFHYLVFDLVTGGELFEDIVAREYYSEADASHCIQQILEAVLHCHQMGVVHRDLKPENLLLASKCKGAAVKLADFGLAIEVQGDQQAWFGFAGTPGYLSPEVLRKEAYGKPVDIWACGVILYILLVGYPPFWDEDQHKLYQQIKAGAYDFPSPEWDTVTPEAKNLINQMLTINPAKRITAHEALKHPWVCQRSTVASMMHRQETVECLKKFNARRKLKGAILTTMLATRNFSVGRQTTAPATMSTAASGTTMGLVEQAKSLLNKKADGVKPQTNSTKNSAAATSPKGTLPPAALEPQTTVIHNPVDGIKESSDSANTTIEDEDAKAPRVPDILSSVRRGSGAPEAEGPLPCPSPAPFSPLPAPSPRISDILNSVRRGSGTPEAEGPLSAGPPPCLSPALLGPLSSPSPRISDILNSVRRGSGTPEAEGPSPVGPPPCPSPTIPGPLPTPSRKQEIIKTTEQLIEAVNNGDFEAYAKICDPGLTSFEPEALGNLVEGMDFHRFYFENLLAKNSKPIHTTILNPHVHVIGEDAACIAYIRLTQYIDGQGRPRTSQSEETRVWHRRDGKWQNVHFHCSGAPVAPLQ

[8] = target: T3, Tyrosine-protein kinase JAK3 (Homo sapiens) (UniProt P52333); assay: Selectivity interaction (KinomeScan (DiscoverX)) EUB0001079a JAK3; conditions: at 1 µM
T3 sequence (whole entry): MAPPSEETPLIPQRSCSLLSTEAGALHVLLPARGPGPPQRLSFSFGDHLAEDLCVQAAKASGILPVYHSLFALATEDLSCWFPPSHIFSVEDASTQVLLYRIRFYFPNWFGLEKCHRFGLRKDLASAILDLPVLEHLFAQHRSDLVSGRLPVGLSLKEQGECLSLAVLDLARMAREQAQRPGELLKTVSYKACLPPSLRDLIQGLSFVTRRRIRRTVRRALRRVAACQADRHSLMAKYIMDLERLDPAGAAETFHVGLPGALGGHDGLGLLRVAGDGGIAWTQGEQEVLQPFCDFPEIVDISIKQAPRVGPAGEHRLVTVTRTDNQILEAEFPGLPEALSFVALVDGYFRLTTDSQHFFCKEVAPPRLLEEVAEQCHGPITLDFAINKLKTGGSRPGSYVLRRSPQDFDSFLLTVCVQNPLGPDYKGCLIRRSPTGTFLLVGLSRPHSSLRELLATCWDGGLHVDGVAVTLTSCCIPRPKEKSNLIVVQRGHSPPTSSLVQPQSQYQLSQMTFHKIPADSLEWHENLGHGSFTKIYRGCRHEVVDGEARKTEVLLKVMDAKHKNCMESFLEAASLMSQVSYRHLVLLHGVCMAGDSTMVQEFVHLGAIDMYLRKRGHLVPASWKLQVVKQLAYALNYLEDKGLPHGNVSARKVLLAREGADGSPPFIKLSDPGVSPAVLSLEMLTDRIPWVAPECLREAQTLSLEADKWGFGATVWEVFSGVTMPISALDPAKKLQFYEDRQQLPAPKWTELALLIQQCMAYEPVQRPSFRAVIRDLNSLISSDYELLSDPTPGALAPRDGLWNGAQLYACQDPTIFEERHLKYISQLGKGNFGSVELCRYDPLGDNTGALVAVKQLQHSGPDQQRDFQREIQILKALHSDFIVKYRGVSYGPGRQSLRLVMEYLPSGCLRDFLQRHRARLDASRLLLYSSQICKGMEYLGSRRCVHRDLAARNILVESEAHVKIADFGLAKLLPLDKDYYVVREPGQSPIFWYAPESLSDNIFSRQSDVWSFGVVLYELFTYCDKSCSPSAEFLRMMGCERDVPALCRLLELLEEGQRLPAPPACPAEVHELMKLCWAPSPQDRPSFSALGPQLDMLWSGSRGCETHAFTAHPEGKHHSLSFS

[9] = target: Serine/threonine-protein kinase pim-1 (Homo sapiens, UniProt P11309); assay: Selectivity interaction (KinomeScan (DiscoverX)) EUB0001079a PIM1; conditions: at 1 µM
Chain of Serine/threonine-protein kinase pim-1 (P11309 whole entry, looked up): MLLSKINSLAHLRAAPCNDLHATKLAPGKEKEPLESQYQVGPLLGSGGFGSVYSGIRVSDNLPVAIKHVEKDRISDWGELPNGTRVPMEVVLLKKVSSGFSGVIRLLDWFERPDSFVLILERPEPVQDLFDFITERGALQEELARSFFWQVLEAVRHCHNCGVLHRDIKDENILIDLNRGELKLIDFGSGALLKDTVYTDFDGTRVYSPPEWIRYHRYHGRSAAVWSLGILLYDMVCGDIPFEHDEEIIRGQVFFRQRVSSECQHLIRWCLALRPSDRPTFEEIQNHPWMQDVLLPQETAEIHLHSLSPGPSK

[10] = tested on: eIF-2-alpha kinase GCN2 (Homo sapiens), Q9P2K8 [S808G]; assay: Selectivity interaction (KinomeScan (DiscoverX)) EUB0000618a EIF2AK4; conditions: at 10 µM
Chain of eIF-2-alpha kinase GCN2 (Homo sapiens), Q9P2K8 [S808G] (Q9P2K8 whole entry S808G): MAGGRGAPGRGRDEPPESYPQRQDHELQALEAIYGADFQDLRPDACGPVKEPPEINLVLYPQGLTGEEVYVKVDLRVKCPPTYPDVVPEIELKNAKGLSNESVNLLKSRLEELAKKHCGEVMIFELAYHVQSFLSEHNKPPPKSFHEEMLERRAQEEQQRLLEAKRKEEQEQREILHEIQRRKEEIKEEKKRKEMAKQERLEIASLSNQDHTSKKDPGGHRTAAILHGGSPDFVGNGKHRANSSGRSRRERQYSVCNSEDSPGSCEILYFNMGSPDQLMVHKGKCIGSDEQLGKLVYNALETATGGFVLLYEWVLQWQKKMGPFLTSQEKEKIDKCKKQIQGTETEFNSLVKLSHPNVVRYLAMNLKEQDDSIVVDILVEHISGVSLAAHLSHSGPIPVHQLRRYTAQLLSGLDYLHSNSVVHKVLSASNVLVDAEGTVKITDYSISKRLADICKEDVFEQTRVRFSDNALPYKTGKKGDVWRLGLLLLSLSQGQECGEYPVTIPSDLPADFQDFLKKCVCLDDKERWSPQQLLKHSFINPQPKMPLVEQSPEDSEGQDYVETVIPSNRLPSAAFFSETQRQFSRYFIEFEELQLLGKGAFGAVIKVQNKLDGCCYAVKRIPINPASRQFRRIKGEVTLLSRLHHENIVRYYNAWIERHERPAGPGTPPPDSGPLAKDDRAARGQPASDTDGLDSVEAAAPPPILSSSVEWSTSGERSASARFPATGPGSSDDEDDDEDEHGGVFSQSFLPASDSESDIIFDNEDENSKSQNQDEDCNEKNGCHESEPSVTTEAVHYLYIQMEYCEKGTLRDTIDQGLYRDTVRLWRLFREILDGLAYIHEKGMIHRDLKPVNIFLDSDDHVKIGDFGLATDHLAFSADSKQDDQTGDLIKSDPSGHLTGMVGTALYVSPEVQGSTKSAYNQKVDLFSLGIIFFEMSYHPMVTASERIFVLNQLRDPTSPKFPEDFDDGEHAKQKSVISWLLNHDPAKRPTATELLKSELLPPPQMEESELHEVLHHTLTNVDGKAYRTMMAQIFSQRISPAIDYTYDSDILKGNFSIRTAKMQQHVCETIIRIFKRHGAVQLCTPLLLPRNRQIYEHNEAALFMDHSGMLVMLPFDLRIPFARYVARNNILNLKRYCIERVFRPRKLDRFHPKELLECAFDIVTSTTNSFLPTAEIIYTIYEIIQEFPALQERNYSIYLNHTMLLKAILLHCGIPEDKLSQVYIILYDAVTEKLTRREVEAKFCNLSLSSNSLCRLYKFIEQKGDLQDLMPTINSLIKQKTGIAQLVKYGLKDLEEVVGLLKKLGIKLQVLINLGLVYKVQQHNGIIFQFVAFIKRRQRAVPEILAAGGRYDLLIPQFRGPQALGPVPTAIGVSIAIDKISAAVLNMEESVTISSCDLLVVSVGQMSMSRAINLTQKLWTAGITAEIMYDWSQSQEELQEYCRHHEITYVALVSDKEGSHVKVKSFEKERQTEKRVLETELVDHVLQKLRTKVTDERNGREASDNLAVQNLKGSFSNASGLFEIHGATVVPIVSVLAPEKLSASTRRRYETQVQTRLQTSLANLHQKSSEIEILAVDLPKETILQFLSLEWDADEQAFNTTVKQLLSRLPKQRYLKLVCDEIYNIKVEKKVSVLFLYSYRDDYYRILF

Structure (SMILES): O=C(NOC[C@H](O)CO)c1ccc(F)c(F)c1Nc1ccc(I)cc1F
% of control [1]: 100%

IC50 (Glucocorticoid receptor): > 30 µM
Structure (SMILES): CCC(=O)N1CC[C@H](Nc2ncnc3c2CN(c2cnc(OC)c(C(F)(F)F)c2)CC3)C1 [LENIOLISIB]

Structure (SMILES): CNC(=O)Nc1ccc(-c2nc(N3CC4CCC(C3)O4)c3cnn(C4CCC5(CC4)OCCO5)c3n2)cc1
% of inhibition [2]: 3%

% of control [3]: 100% | % of control [4]: 100%
Structure (SMILES): CCN(CC)CCCCNc1ncc2cc(-c3cc(OC)cc(OC)c3)c(NC(=O)NC(C)(C)C)nc2n1

% of control ([5]; at 1 µM): 106% | % of control ([5]; at 5 µM): 92%
Structure (SMILES): C=CC(=O)Nc1cccc(C(=O)Nc2ccc(Nc3cc(-c4[nH]c(SC)nc4C)ccn3)cc2)c1

Structure (SMILES): COc1cc(Nc2nc(C)cc(-c3cnn4nc(OC)ccc34)n2)cc(C(F)(F)F)c1
% of control [6]: 96%

Structure (SMILES): CN(C)CCOc1ccc(-c2nc(-c3ccncc3)c(-c3ccc4c(c3)CC/C4=N\O)[nH]2)cc1
% of control [7]: 98%

Structure (SMILES): Nc1cnc(N2CCc3cc(S(=O)(=O)Nc4c(F)cc(Cl)cc4F)cc(N4CCCC4=O)c32)nc1 [TP-020n]
% of control [8]: 100% | % of control [9]: 88%

Structure (SMILES): O[C@H]1CC[C@H](Nc2ncc3nc(Nc4c(F)cc(F)cc4F)n([C@H]4CCOC4)c3n2)CC1
% of control [10]: 100%
